Laboratory results as given in ChEMBL document CHEMBL1124148 (J Med Chem, 1988).

What was measured:
L1210 ( R81) = assay: Inhibitory concentration against growth of L1210/R81 cell line; format: functional, cell-based; details: Mus musculus
L1210 = assay: Inhibitory concentration against growth of L1210 cell line; format: functional, cell-based; details: Mus musculus
Dihydrofolate reductase = target: T1, Dihydrofolate reductase (Mus musculus, UniProt P00375)
T1 sequence (P00375 whole entry): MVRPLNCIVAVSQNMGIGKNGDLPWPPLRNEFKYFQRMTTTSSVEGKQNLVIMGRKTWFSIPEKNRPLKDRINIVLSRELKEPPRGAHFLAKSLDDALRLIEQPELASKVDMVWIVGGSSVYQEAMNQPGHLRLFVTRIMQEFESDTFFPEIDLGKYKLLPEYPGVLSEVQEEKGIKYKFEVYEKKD
Description: Inhibition of dihydrofolate reductase (DHFR) from murine leukemia cells

[1] = Inhibition of FPGS from mouse liver in the presence of folic acid; format: functional
SCC-25 [2] = assay: Inhibitory concentration against growth of SCC25/R1 cell line; format: functional, cell-based; details: Homo sapiens
SCC-25 [3] = assay: Inhibitory concentration against growth of SCC25 cell line; format: functional, cell-based; details: Homo sapiens
SCC-15 [4] = assay: Inhibitory concentration against growth of SCC15/R1 cell line; format: functional, cell-based; details: Homo sapiens
SCC-15 [5] = assay: Inhibitory concentration against growth of SCC15 cell line; format: functional, cell-based; details: Homo sapiens
[6] = Cell-growth inhibition against SCC15/R1 cell line; format: functional, cell-based; details: Homo sapiens, SCC-15
[7] = Cell-growth inhibition against SCC25 cell line; format: functional, cell-based; details: Homo sapiens, SCC-25
[8] = Cell-growth inhibition against SCC25/R1 cell line; format: functional, cell-based; details: Homo sapiens, SCC-25
[9] = Cell-growth inhibition against SCC15 cell line; format: functional, cell-based; details: Homo sapiens, SCC-15

IC50 (L1210 ( R81)) [µM]	IC50 (L1210) [µM]	IC50 (Dihydrofolate reductase) [µM]	Ki [1] [µM]	SMILES	other results
156	0.02	0.034	> 1000	Nc1nc(N)c2nc(CN(C=O)c3ccc(C(=O)NC(CCCNC(=O)c4ccccc4)C(=O)O)cc3)cnc2n1 (stereo not given)	
27	0.0032	0.028		Nc1nc(N)c2nc(CNc3ccc(C(=O)NC(CCCNC(=O)c4ccc(Cl)cc4)C(=O)O)cc3)cnc2n1 (stereo not given)	
			44	Nc1nc(N)c2nc(CNc3ccc(C(=O)NC(CCCNC(=O)CCC(=O)O)C(=O)O)cc3)cnc2n1 (stereo not given)	
17	0.00089	0.027	> 100	Nc1nc(N)c2nc(CNc3ccc(C(=O)NC(CCCNC(=O)c4ccccc4)C(=O)O)cc3)cnc2n1 (stereo not given)	
			0.15	NCCCC(NC(=O)c1ccc(NCc2cnc3nc(N)nc(N)c3n2)cc1)C(=O)O (stereo not given)	
			> 100	Nc1nc(N)c2nc(CN(C=O)c3ccc(C(=O)NC(CCCNC(=O)CCC(=O)O)C(=O)O)cc3)cnc2n1 (stereo not given)	
> 200	3.2	0.056		Nc1nc(N)c2nc(CN(C=O)c3ccc(C(=O)NC(CCCNC(=O)c4ccc(Cl)c(Cl)c4)C(=O)O)cc3)cnc2n1 (stereo not given)	
	0.00075			Nc1nc(N)c2nc(CNc3ccc(C(=O)NC(CCCNC(=O)c4ccccc4C(=O)O)C(=O)O)cc3)cnc2n1 (stereo not given)	IC50 [6]: 0.004 µM; IC50 [7]: 0.00096 µM; IC50 [8]: 0.0013 µM; IC50 [9]: 0.0011 µM
> 200	0.2	0.015	> 100	Nc1nc(N)c2nc(CN(C=O)c3ccc(C(=O)NC(CCCNC(=O)c4ccc(Cl)cc4)C(=O)O)cc3)cnc2n1 (stereo not given)	
81	0.017	0.028	68	CC(=O)NCCCC(NC(=O)c1ccc(NCc2cnc3nc(N)nc(N)c3n2)cc1)C(=O)O (stereo not given)	
			0.65	NCCCC(NC(=O)c1ccc(N(C=O)Cc2cnc3nc(N)nc(N)c3n2)cc1)C(=O)O (stereo not given)	
230	0.41	0.053		CC(=O)NCCCC(NC(=O)c1ccc(N(C=O)Cc2cnc3nc(N)nc(N)c3n2)cc1)C(=O)O (stereo not given)	
				CN(Cc1cnc2nc(N)nc(N)c2n1)c1ccc(C(=O)NC(CCC(=O)OC(C)(C)C)C(=O)O)cc1 (stereo not given)	IC50 [6]: 1.3 µM; IC50 [7]: 0.4 µM; IC50 [8]: 0.78 µM; IC50 [9]: 0.6 µM
	0.032	0.045		Nc1nc(N)c2nc(CNc3ccc(C(=O)N[C@@H](CCCNC(=O)c4ccc(Cl)c(Cl)c4)C(=O)O)cc3)cnc2n1	

SMILES	IC50 (L1210 ( R81)) [µM]	IC50 (L1210) [µM]	IC50 (Dihydrofolate reductase) [µM]	Ki [1] [µM]	other results
CN(Cc1cnc2nc(N)nc(N)c2n1)c1ccc(C(=O)N[C@@H](CCC(=O)O)C(=O)O)cc1 [METHOTREXATE]	200				IC50 (SCC-25 [2]): 0.15 µM; IC50 (SCC-25 [3]): 0.0075 µM; IC50 (SCC-15 [4]): 0.58 µM; IC50 (SCC-15 [5]): 0.038 µM
